Data published in the supplement of paper PMC11061612.

How the values were obtained:
Paclitaxel = compound: CC(=O)O[C@H]1C(=O)[C@@]2(C)[C@H]([C@H](OC(=O)c3ccccc3)[C@]3(O)C[C@H](OC(=O)[C@H](O)[C@@H](NC(=O)c4ccccc4)c4ccccc4)C(C)=C1C3(C)C)[C@]1(OC(C)=O)CO[C@@H]1C[C@@H]2O [Paclitaxel]; settings: max 3 µM
Procedure, shortened: (§1)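 Cancer cell lines were dosed for 72 hours (final DMSO typically 0.2%) after 24 hours at 37°C and 5% CO2 in 1536-well plates containing 7.5 μl DMEM/F12 or RPMI with 10% FBS. Viability came from CellTiter-Glo 2.0 luminescence, scaled between blank-well and DMSO-well means, and dose responses were fitted to a two-parameter logistic curve with a non-linear mixed effects model. The single-agent IC50 was obtained from this fit.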

Crizotinib = compound: C[C@@H](Oc1cc(-c2cnn(C3CCNCC3)c2)cnc1N)c1c(Cl)ccc(F)c1Cl [Crizotinib]; settings: max 10 µM
Procedure, shortened: as §1

AZD1390 = compound: CC(C)n1c(=O)n(C)c2cnc3cc(F)c(-c4ccc(OCCCN5CCCCC5)nc4)cc3c21 [AZD1390]; settings: max 0.3 µM
Procedure, shortened: as §1

AZD2811 = compound: CCN(CCO)CCCOc1ccc2c(Nc3cc(CC(=O)Nc4cccc(F)c4)[nH]n3)ncnc2c1 [AZD2811]; settings: max 1 µM
Procedure, shortened: as §1

AZD0156 = compound: CN(C)CCCOc1ccc(-c2ccc3ncc4c(c3c2)n(C2CCOCC2)c(=O)n4C)cn1 [AZD0156]; settings: max 3 µM
Procedure, shortened: as §1

Selumetinib = compound: Cn1cnc2c(F)c(Nc3ccc(Br)cc3Cl)c(C(=O)NOCCO)cc21 [Selumetinib]; settings: max 10 µM
Procedure, shortened: as §1

Prexasertib = compound: COc1cccc(OCCCN)c1-c1cc(Nc2cnc(C#N)cn2)n[nH]1 [Prexasertib]; settings: max 1 µM
Procedure, shortened: as §1

Taselisib = compound: Cc1nc(-c2cn3c(n2)-c2ccc(-c4cnn(C(C)(C)C(N)=O)c4)cc2OCC3)n(C(C)C)n1 [Taselisib]; settings: max 10 µM
Procedure, shortened: as §1

Venetoclax = compound: CC1(C)CCC(CN2CCN(c3ccc(C(=O)NS(=O)(=O)c4ccc(NCC5CCOCC5)c([N+](=O)[O-])c4)c(Oc4cnc5[nH]ccc5c4)c3)CC2)=C(c2ccc(Cl)cc2)C1 [Venetoclax]; settings: max 1 µM
Procedure, shortened: as §1

AZD4320 = compound: CN(CC[C@H](CSC1=CC=CC=C1)NC2=C(C=C(C=C2)S(=O)(=O)NC(=O)C3=CC=C(C=C3)N4CCC(CC4)[C@H](C5=CC=CC=C5C6=CC=C(C=C6)Cl)O)S(=O)(=O)C(F)(F)F)CCO [AZD4320]; settings: max 1 µM
Procedure, shortened: as §1

MK-2206 = compound: NC1(c2ccc(-c3nc4ccn5c(=O)[nH]nc5c4cc3-c3ccccc3)cc2)CCC1 [MK-2206]; settings: max 10 µM
Procedure, shortened: as §1

Savolitinib = compound: C[C@@H](c1ccc2nccn2c1)n1nnc2ncc(-c3cnn(C)c3)nc21 [Savolitinib]; settings: max 1 µM
Procedure, shortened: as §1

SG3199 = compound: CC1=CN2[C@@H](C1)C=NC3=CC(=C(C=C3C2=O)OC)OCCCCCOC4=C(C=C5C(=C4)N=C[C@@H]6CC(=CN6C5=O)C)OC [SG3199]; settings: max 0.001 µM
Procedure, shortened: as §1

AZD8186 = compound: C[C@@H](Nc1cc(F)cc(F)c1)c1cc(C(=O)N(C)C)cc2c(=O)cc(N3CCOCC3)oc12 [AZD8186]; settings: max 10 µM
Procedure, shortened: as §1

AZD5153 = compound: COc1nnc2ccc(N3CCC(c4ccc(OCCN5CCN(C)C(=O)[C@H]5C)cc4)CC3)nn12 [AZD5153]; settings: max 1 µM
Procedure, shortened: as §1

AZD1775 = compound: C=CCn1c(=O)c2cnc(Nc3ccc(N4CCN(C)CC4)cc3)nc2n1-c1cccc(C(C)(C)O)n1 [AZD1775]; settings: max 3 µM
Procedure, shortened: as §1

Lapatinib = compound: CS(=O)(=O)CCNCc1ccc(-c2ccc3ncnc(Nc4ccc(OCc5cccc(F)c5)c(Cl)c4)c3c2)o1 [Lapatinib]; settings: max 10 µM
Procedure, shortened: as §1

Etoposide = compound: COc1cc([C@@H]2c3cc4c(cc3[C@@H](O[C@@H]3O[C@@H]5CO[C@@H](C)O[C@H]5[C@H](O)[C@H]3O)[C@H]3COC(=O)[C@H]23)OCO4)cc(OC)c1O [Etoposide]; settings: max 10 µM
Procedure, shortened: as §1

[1] = compound: O=C(Nc1ccc2[nH]nc(-c3ccncc3)c2c1)[C@@H]1CCN(CC(=O)N2CCN(c3ccc(-c4ncccn4)cc3)CC2)C1; settings: max 5 µM
Procedure, shortened: as §1

SN-38 = compound: CCc1c2c(nc3ccc(O)cc13)-c1cc3c(c(=O)n1C2)COC(=O)[C@]3(O)CC [SN-38]; settings: max 0.3 µM
Procedure, shortened: as §1

Carboplatin = compound: C1CC(C1)(C(=O)[O-])C(=O)[O-].N.N.[Pt+2] [Carboplatin]; settings: max 10 µM
Procedure, shortened: as §1

Trametinib = compound: CC(=O)Nc1cccc(-n2c(=O)n(C3CC3)c(=O)c3c(Nc4ccc(I)cc4F)n(C)c(=O)c(C)c32)c1 [Trametinib]; settings: max 1 µM
Procedure, shortened: as §1

Doxorubicin = compound: COc1cccc2c1C(=O)c1c(O)c3c(c(O)c1C2=O)C[C@@](O)(C(=O)CO)C[C@@H]3O[C@H]1C[C@H](N)[C@H](O)[C@H](C)O1 [Doxorubicin]; settings: max 1 µM
Procedure, shortened: as §1

Gemcitabine = compound: Nc1ccn([C@@H]2O[C@H](CO)[C@@H](O)C2(F)F)c(=O)n1 [Gemcitabine]; settings: max 0.3 µM
Procedure, shortened: as §1

AZD5363 = compound: C1CN(CCC1(C(=O)N[C@@H](CCO)C2=CC=C(C=C2)Cl)N)C3=NC=NC4=C3C=CN4 [AZD5363]; settings: max 10 µM
Procedure, shortened: as §1

5-Fluorouracil = compound: O=c1[nH]cc(F)c(=O)[nH]1 [5-Fluorouracil]; settings: max 20 µM
Procedure, shortened: as §1

Dasatinib = compound: CC1=C(C(=CC=C1)Cl)NC(=O)C2=CN=C(S2)NC3=CC(=NC(=N3)C)N4CCN(CC4)CCO [Dasatinib]; settings: max 2 µM
Procedure, shortened: as §1

SRA737 = compound: N#Cc1cnc(Nc2cc(NC[C@H]3CNCCO3)c(C(F)(F)F)cn2)cn1 [SRA737]; settings: max 10 µM
Procedure, shortened: as §1

Palbociclib = compound: CC(=O)c1c(C)c2cnc(Nc3ccc(N4CCNCC4)cn3)nc2n(C2CCCC2)c1=O [Palbociclib]; settings: max 10 µM
Procedure, shortened: as §1

Gefitinib = compound: COc1cc2ncnc(Nc3ccc(F)c(Cl)c3)c2cc1OCCCN1CCOCC1 [Gefitinib]; settings: max 10 µM
Procedure, shortened: as §1

AZD5991 = compound: Cc1c2c(nn1C)CSCc1cc(n(C)n1)CSc1cc(c3ccccc3c1)OCCCc1c(C(=O)O)n(C)c3c-2c(Cl)ccc13 [AZD5991]; settings: max 1 µM
Procedure, shortened: as §1

Olaparib = compound: O=C(c1cc(Cc2n[nH]c(=O)c3ccccc23)ccc1F)N1CCN(C(=O)C2CC2)CC1 [Olaparib]; settings: max 10 µM
Procedure, shortened: as §1

Alisertib = compound: COc1cc(Nc2ncc3c(n2)-c2ccc(Cl)cc2C(c2c(F)cccc2OC)=NC3)ccc1C(=O)O [Alisertib]; settings: max 10 µM
Procedure, shortened: as §1

AZD6738 = compound: C[C@@H]1COCCN1C2=NC(=NC(=C2)C3(CC3)[S@](=N)(=O)C)C4=C5C=CNC5=NC=C4 [AZD6738]; settings: max 10 µM
Procedure, shortened: as §1

AZD7648 = compound: Cc1cc2ncnn2cc1Nc1ncc2c(n1)n(C1CCOCC1)c(=O)n2C [AZD7648]; settings: max 10 µM
Procedure, shortened: as §1

| Cell Line | IC50, cell viability 72 h (Paclitaxel) | IC50, cell viability 72 h (Crizotinib) | IC50, cell viability 72 h (AZD1390) | IC50, cell viability 72 h (AZD2811) | IC50, cell viability 72 h (AZD0156) | IC50, cell viability 72 h (Selumetinib) | IC50, cell viability 72 h (Prexasertib) | IC50, cell viability 72 h (Taselisib) | IC50, cell viability 72 h (Venetoclax) | IC50, cell viability 72 h (AZD4320) | IC50, cell viability 72 h (MK-2206) | IC50, cell viability 72 h (Savolitinib) | IC50, cell viability 72 h (SG3199) | IC50, cell viability 72 h (AZD8186) | IC50, cell viability 72 h (AZD5153) | IC50, cell viability 72 h (AZD1775) | IC50, cell viability 72 h (Lapatinib) | IC50, cell viability 72 h (Etoposide) | IC50, cell viability 72 h [1] | IC50, cell viability 72 h (SN-38) | IC50, cell viability 72 h (Carboplatin) | IC50, cell viability 72 h (Trametinib) | IC50, cell viability 72 h (Doxorubicin) | IC50, cell viability 72 h (Gemcitabine) | IC50, cell viability 72 h (AZD5363) | IC50, cell viability 72 h (5-Fluorouracil) | IC50, cell viability 72 h (Dasatinib) | IC50, cell viability 72 h (SRA737) | IC50, cell viability 72 h (Palbociclib) | IC50, cell viability 72 h (Gefitinib) | IC50, cell viability 72 h (AZD5991) | IC50, cell viability 72 h (Olaparib) | IC50, cell viability 72 h (Alisertib) | IC50, cell viability 72 h (AZD6738) | IC50, cell viability 72 h (AZD7648) |
| --- | --- | --- | --- | --- | --- | --- | --- | --- | --- | --- | --- | --- | --- | --- | --- | --- | --- | --- | --- | --- | --- | --- | --- | --- | --- | --- | --- | --- | --- | --- | --- | --- | --- | --- | --- |
| DMS-114 (Small Cell Lung Carcinoma) | 0.132 µM | > 10 µM | > 0.3 µM | > 1 µM | > 3 µM | > 10 µM | > 1 µM | 5.19 µM | > 1 µM | > 1 µM | > 10 µM | > 1 µM | > 0.001 µM | > 10 µM | 0.688 µM | > 3 µM | > 10 µM | > 10 µM | > 5 µM | 0.23 µM | > 10 µM | > 1 µM | > 1 µM | > 0.3 µM | > 10 µM | > 20 µM | > 2 µM | > 10 µM | > 10 µM | > 10 µM | 0.782 µM | > 10 µM | > 10 µM | > 10 µM | > 10 µM |
| NCI-H520 (Squamous Cell Lung Carcinoma) | 0.0431 µM | > 10 µM | > 0.3 µM | > 1 µM | > 3 µM | > 10 µM | 0.0443 µM | 2.34 µM | > 1 µM | > 1 µM | 1.87 µM | > 1 µM | > 0.001 µM | 4.99 µM | 0.923 µM | 1.03 µM | > 10 µM | > 10 µM | > 5 µM | 0.046 µM | > 10 µM | > 1 µM | > 1 µM | 0.0936 µM | 4.01 µM | > 20 µM | > 2 µM | > 10 µM | 4.77 µM | > 10 µM | > 1 µM | > 10 µM | 8.62 µM | 7.34 µM | > 10 µM |
| NCI-H929 (Plasma Cell Myeloma) | 0.00454 µM | 0.982 µM | > 0.3 µM | > 1 µM | 1.15 µM | 3.13 µM | 0.179 µM | 0.0236 µM | > 1 µM | > 1 µM | 0.0699 µM | > 1 µM | > 0.001 µM | 0.728 µM | 0.0134 µM | 1.06 µM | > 10 µM | 1.25 µM | 0.981 µM | 0.0131 µM | > 10 µM | 0.0329 µM | 0.548 µM | 0.0121 µM | 0.106 µM | 7.15 µM | > 2 µM | > 10 µM | > 10 µM | > 10 µM | 0.0175 µM | > 10 µM | > 10 µM | 5.41 µM | 2.27 µM |
| ST486 (Burkitt's Lymphoma) | 0.0085 µM | 0.739 µM | > 0.3 µM | 0.0319 µM | > 3 µM | 8.88 µM | 0.00733 µM | > 10 µM | > 1 µM | 0.134 µM | > 10 µM | > 1 µM | > 0.001 µM | > 10 µM | 0.0649 µM | 0.32 µM | > 10 µM | 1.18 µM | 4.79 µM | 0.0809 µM | > 10 µM | > 1 µM | 0.773 µM | 0.0159 µM | > 10 µM | > 20 µM | 0.22 µM | 0.968 µM | > 10 µM | > 10 µM | 0.071 µM | > 10 µM | 0.04 µM | 2 µM | > 10 µM |
| NCI-H3122 (Lung Adenocarcinoma) | 0.00901 µM | 0.323 µM | > 0.3 µM | > 1 µM | > 3 µM | 7.82 µM | 0.315 µM | 1.08 µM | > 1 µM | > 1 µM | 7.95 µM | > 1 µM | > 0.001 µM | > 10 µM | 0.612 µM | > 3 µM | > 10 µM | > 10 µM | 0.958 µM | 0.0177 µM | > 10 µM | 0.0589 µM | 0.237 µM | 0.032 µM | > 10 µM | > 20 µM | > 2 µM | > 10 µM | 2.58 µM | > 10 µM | > 1 µM | > 10 µM | > 10 µM | 7.46 µM | > 10 µM |
